Literature values, collected in US6372197B1, “Methods and compositions using norastemizole in combination with leukotriene inhibitors” (Sepracor Inc., priority 1998, dated 2002).
Where two headings read alike, the source gives them in different places.

What was measured:
[1] = tested on: leukotriene (LTH4, LTC4, LTD4, and LTE4) formation; settings: in vitro
[2] = tested on: LTB4 formation; settings: ex vivo, several species
[3] = tested on: leukotriene-dependent smooth muscle contractions; settings: in vitro, guinea pig airways
[4] = tested on: leukotriene-dependent smooth muscle contractions; settings: in vitro, human airways
[5] = 373 patients
[6] = in some patients
[7] = in vivo
[8] = tested on: contractile activity of three leukotrienes; settings: in vitro, conducting airway smooth muscle from laboratory animals
[9] = tested on: contractile activity of three leukotrienes; settings: in vitro, conducting airway smooth muscle from humans
[10] = tested on: LTD4-induced increases in cutaneous vascular permeability; settings: in vivo
[11] = tested on: LTD4-induced influx of eosinophils; settings: in vivo

| absorption [7] | metabolism [7] | Compound | inhibition of leukotriene (LTH4, LTC4, LTD4, and LTE4) formation [1] | inhibition of LTB4 formation [2] | inhibition of leukotriene-dependent smooth muscle contractions [3] | inhibition of leukotriene-dependent smooth muscle contractions [4] | efficacy ([5]; 400 mg) | efficacy ([5]; 600 mg four times daily) | adverse effects reported [6] | antagonism of contractile activity of three leukotrienes [8] | antagonism of contractile activity of three leukotrienes [9] | intradermal LTD4-induced increases in cutaneous vascular permeability [10] | inhaled LTD4-induced influx of eosinophils into animal lungs [11] |
| --- | --- | --- | --- | --- | --- | --- | --- | --- | --- | --- | --- | --- | --- |
|  |  | CC(c1cc2ccccc2s1)N(O)C(N)=O (racemic) [Zileuton, (±)-1-(1-Benso[b]thien-2-ylethyl)-1-hydroxyurea] | inhibit | inhibitor | inhibits | inhibits | failed to do so | required to provide efficacy | headache, pain, asthenia, dyspepsia, nausea, and myalgia |  |  |  |  |
| well absorbed | extensively metabolized | COc1ccc(CCN2CCC(Nc3nc4ccccc4n3Cc3ccc(F)cc3)CC2)cc1 [Astemizole] |  |  |  |  |  |  |  |  |  |  |  |
|  |  | COc1cc(C(=O)NS(=O)(=O)c2ccccc2C)ccc1Cc1cn(C)c2ccc(NC(=O)OC3CCCC3)cc12 [Zafirlukast, 4-(5-cyclopentyloxy-carbonylamino-1-methyl-indol-8-ylmethyl)-3-methoxy-N-o-tolylsulfonylbenzamide] |  |  |  |  |  |  | headache, infection, nausea, diarrhea, pain, asthenia, abdominal pain, dizziness, myalgia, fever, vomiting, SGPT elevation, and dyspepsia | antagonized | antagonized | prevented | inhibited |
